Results from BindingDB's records for doi:10.1021/jm8010993.

What was measured:
Assay in all cases: PDE4 Enzyme Assay
Conditions in all cases: pH 8; 34 °C
[1] = molecular target: cAMP-specific 3',5'-cyclic phosphodiesterase 4A (Homo sapiens, UniProt P27815)
Description: (§1) The samples were assayed in a solution composed of PDE4, [3H]cAMP/cAMP, and test compounds. To convert AMP to adenosine, snake venom was added to each sample after reactions were stopped. The reaction products were separated by anion-exchange chromatography performed on AGl-X8 resin, and the amount of unbound [3H] adenosine was collected and quantified by scintillation counting.

[2] = molecular target: cAMP-specific 3',5'-cyclic phosphodiesterase 4B (Homo sapiens, UniProt Q07343)
Description: as §1

[3] = molecular target: cAMP-specific 3',5'-cyclic phosphodiesterase 4D (Homo sapiens, UniProt Q08499)
Description: as §1

cAMP-specific 3',5'-cyclic phosphodiesterase 4D, sequence (Q08499 whole entry): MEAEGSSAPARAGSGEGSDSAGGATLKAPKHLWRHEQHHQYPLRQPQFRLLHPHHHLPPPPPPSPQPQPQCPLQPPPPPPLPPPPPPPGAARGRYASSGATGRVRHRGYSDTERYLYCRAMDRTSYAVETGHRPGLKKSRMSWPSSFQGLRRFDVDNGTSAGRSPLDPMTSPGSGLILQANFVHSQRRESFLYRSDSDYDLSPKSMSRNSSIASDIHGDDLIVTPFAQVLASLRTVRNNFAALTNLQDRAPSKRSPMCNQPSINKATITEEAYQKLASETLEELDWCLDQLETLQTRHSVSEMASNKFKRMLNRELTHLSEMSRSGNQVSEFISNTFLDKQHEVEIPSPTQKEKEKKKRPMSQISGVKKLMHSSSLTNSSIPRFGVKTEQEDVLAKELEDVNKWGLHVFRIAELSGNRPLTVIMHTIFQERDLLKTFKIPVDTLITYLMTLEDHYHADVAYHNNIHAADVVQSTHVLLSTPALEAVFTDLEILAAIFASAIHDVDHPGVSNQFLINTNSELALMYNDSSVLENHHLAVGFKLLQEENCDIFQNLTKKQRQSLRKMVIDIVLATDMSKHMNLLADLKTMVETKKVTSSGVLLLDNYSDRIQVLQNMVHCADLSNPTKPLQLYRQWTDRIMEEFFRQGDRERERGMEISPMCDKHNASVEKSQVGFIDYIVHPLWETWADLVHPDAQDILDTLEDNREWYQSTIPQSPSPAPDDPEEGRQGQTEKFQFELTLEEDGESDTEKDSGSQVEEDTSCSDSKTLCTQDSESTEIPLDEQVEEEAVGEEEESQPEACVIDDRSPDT
cAMP-specific 3',5'-cyclic phosphodiesterase 4A, sequence (P27815 whole entry): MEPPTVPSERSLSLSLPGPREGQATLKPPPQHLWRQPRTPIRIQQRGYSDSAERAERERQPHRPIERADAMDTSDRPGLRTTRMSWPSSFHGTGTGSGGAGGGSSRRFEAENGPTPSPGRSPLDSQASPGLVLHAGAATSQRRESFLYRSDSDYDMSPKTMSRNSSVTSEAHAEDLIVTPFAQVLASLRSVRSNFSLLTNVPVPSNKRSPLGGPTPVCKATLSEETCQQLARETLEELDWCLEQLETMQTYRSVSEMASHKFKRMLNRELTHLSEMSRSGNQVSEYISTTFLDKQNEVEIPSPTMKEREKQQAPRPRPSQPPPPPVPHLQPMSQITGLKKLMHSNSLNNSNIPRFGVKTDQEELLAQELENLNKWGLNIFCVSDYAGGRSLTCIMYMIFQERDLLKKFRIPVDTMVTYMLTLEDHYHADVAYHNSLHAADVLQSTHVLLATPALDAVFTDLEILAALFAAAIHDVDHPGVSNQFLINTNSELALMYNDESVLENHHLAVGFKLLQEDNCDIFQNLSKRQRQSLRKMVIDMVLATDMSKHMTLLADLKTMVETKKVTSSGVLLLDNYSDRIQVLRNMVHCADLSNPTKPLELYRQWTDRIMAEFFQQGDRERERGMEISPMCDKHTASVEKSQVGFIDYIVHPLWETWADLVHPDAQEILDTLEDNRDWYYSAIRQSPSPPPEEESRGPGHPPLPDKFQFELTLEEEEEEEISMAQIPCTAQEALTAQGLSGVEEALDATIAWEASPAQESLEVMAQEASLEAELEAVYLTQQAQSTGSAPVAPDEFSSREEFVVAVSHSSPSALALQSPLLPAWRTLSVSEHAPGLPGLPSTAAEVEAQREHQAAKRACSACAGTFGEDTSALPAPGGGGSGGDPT
cAMP-specific 3',5'-cyclic phosphodiesterase 4B, sequence (Q07343 whole entry): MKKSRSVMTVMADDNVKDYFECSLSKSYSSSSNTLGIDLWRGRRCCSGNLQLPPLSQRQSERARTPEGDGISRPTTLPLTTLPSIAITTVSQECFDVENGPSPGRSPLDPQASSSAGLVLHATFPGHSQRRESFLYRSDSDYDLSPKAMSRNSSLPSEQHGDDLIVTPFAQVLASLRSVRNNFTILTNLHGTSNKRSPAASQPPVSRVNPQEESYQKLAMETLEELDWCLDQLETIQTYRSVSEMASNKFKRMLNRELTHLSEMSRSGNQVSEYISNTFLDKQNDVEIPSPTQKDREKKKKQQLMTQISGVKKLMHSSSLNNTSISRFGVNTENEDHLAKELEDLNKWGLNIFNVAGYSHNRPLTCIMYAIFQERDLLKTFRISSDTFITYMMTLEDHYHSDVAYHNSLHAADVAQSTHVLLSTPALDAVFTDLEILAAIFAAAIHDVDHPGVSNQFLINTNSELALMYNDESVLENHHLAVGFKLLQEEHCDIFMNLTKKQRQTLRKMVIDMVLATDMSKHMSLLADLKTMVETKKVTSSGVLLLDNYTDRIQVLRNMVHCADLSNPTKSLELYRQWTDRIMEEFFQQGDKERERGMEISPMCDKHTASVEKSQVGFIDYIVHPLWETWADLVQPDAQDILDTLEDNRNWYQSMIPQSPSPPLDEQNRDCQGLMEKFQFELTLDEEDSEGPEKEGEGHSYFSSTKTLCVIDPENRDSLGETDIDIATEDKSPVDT

Structure (SMILES): COc1ccc(F)c(CCC2CCC(CCNCCCCCN3N=C(c4ccc(OC)c(OC)c4)C4CC=CCC4C3=O)O2)c1 (stereo not drawn) [phthalazinone, 21]
- Ki [1]: > 1000 nM
- Ki [2]: 199 nM
- Ki [3]: 2 nM
